In PMC11329504, “Identification of novel small molecule-based strategies of COL7A1 upregulation and readthrough activity for the treatment of recessive dystrophic epidermolysis bullosa” (Scientific Reports, 2024):

Assays:
Assay type in all cases: cell-based, human
[1] = test system: truncated and full-length C7 in RDEB_L1, RDEB_L5 and HEK293^R578X cells; test: Western blot detection of truncated and full-length C7
Method: For western blot, RDEB or normal human keratinocytes were lysed in protein extraction buffer (50 mM Tris–HCl [pH 7.5], 100 mM NaCl, 1% Nonidet P-40, and 4 mM EDTA) containing proteinase inhibitors cocktail (Complete Mini, EDTA free; Roche Diagnostics, Mannheim, Germany). Lysates were incubated for 30 min on ice and centrifuged at 15,000 g for 30 min at 4 °C. Supernatants were then collected and concentrated by ultrafiltration using Amicon Ultra columns (10 kDa; Millipore, Ireland). Protein concentrations were measured using the Bradford assay (Bio-Rad, Hercules, CA). For each sample, […] total protein was resolved on NuPAGE Novex 3%–8% Tris–Acetate gel electrophoresis (Invitrogen, Carlsbad, CA) and electrotransferred to nitrocellulose membranes (Invitrogen, Carlsbad, CA). For type VII collagen analysis, blots were probed with a monospecific polyclonal anti-C7 antibody (a generous gift from Dr. A. Nystrom, University of Freiburg). Invitrogen anti-MDH1 polyclonal antibody (PA550446, 1:1000) was used to detect MDH1. Standard antibodies against a reference protein were used as a loading control, as indicated. Visualization of the resulting signal was performed by incubating with horseradish peroxidase (HRP)- conjugated anti-rabbit antibody (Amersham, Burlington, MA) and West Pico Chemiluminescent Substrate (Pierce, Rockford, IL).

[2] = test system: total (truncated + full length) C7 in RDEB_L5 cells; test: AlphaLISA quantification of total C7 in RDEB_L5 cells; conditions: for EC50: Homo sapiens, total C7 AlphaLISA, 48 h, 20 ng/mL TGFß2, relative EC50, mean ± SD, read-out: Increase in C7 levels EC50; for Increase in C7 levels Emax, % vs baseline: 20 ng/mL TGFß2
Method: The AlphaLISA assay was developed in-house by using the biotin-conjugated rabbit polyclonal antibody anti-C7 (LSBio LS-298147) and conjugating the acceptor beads (PerkinElmer 6772001) to a monoclonal anti-Collagen type VII antibody produced in mouse, clone LH7.2 (Thermo MA5-13,432). Formulation of the mAb clone LH7.2 was exchanged to PBS and concentrated 5 × by using Amicon® Ultra-0.5 centrifugal filters up to 1 mg/ml. The conjugation procedure was carried out according to the protocol provided by PerkinElmer.
For compound treatment in RDEB patient-derived transformed keratinocytes, 5,000 cells were plated in 20 µL of supplemented KGM media containing 20 ng/mL TGFβ2 (SIGMA GF113) without GA-1000 in 384-well cell culture plates (Greiner 781098). The day after, 5 µL of test compounds prepared 5 × in supplemented KGM without GA-1000 were added over cells and incubated for 48 h at 37 °C and 5% CO2. For compound treatment in HEK293^R578X, 10,000 cells were plated in 20 μL of DMEM (High Glucose, 2 mM L-Glutamine, sodium pyruvate, and FBS 10%) in 384-well cell culture plates (Greiner 781,098,). The day after, 5 μL of test compounds prepared 5 × in DMEM complete medium were added over cells and incubated for 48 h at 37 °C and 5% CO2.
After the treatment process, 2.5 µL of RIPA buffer 10 x (Abcam ab156034) were added over the […] of cells for 20 min at room temperature to obtain a complete cell lysis. Then, 2 μL of sample (i.e., cell lysate with supernatant) were transferred to the AlphaLISA plate (PerkinElmer 6,059,340) containing […] of antibodies mixture ([…] of acceptor Beads-Ab and […] of biotin-rAb) prepared in AlphaLISA buffer 1 x (PerkinElmer AL00F). The reaction was incubated for 90 min at room temperature. Finally, 10 μL of […] of donor beads (PerkinElmer 6760002,) were added to the reaction under subdued light, mixed gently, and incubated for 3 h at room temperature. AlphaLISA signal was detected with an Envision microplate reader (Perkin Elmer) using the following setting: Filter: AlphaScreen, Excitation time: 180 ms, Integration time: 300 ms.
Statistical analyses were performed using GraphPad Prism v. 7.04 (La Jolla, California). Results are shown as mean ± SD of experimental replicates. Dose–response curves to assess compound treatment effect were plotted in a four-parameter logistic model. Relative EC50, representing the total drug concentration producing a 50% effect, was calculated in the four-parameter logistic equation. Comparisons of collagen protein and mRNA expression in different experimental conditions were made using ANOVA, followed by a post hoc test. statistical significance was considered with p values < 0.05.

[3] = test system: MDH1 native stop codon readthrough in RDEB_L1 and RDEB_L5 cells; test: Western blot of MDH1 native stop codon (NSC) readthrough selectivity; conditions: 48 h
Description: In the absence of a verified target or mechanism of action, a key aspect of phenotypic screening is to ensure that the phenotypic activity is sufficiently selective and has minimal or no interference in physiologically close cellular processes. In this context, the selectivity of readthrough compounds vs native stop codons (NSC) and normal codon–anticodon recognition is an important endpoint to verify the selectivity of hit compounds. For that purpose, we analyzed the translation products of MDH-1, a gene that has an alternative native stop codon that has been used as a surrogate of non-specific readthrough activity[42],[43]. […] For western blot, RDEB or normal human keratinocytes were lysed in protein extraction buffer (50 mM Tris–HCl [pH 7.5], 100 mM NaCl, 1% Nonidet P-40, and 4 mM EDTA) containing proteinase inhibitors cocktail (Complete Mini, EDTA free; Roche Diagnostics, Mannheim, Germany). Lysates were incubated for 30 min on ice and centrifuged at 15,000 g for 30 min at 4 °C. Supernatants were then collected and concentrated by ultrafiltration using Amicon Ultra columns (10 kDa; Millipore, Ireland). Protein concentrations were measured using the Bradford assay (Bio-Rad, Hercules, CA). […] A. Nystrom, University of Freiburg). Invitrogen anti-MDH1 polyclonal antibody (PA550446, 1:1000) was used to detect MDH1. […]

`NC(=O)Cn1ccc2ccc(-c3cnc(N)c(C(=O)NC4C5CC6CC4CC(O)(C6)C5)n3)cc21` (centres unmarked) [Compound 1] was tested, and the “C7 products induced, western blot” value ([1]; RDEB_L1 cells, 10 μM) was “only upregulating the truncated form of C7”, the EC50 [2] was 4.7 ± 0.8 µM and the “Increase in C7 levels Emax, % vs baseline” value (from here on “Increase … % vs baseline”) ([2]; at 12.5 µM) was 1401 ± 384 at 12.5 % vs baseline.

For `C#Cc1cc(-c2ccncc2)c(-c2cccc(F)c2)nc1N` [Compound 7], the “non-specific readthrough at MDH-1 native stop codon, western blot” value ([3]; two and threefold above its EC50 in RDEB_L5 and RDEB_L1 cells respectively) was “did not induce non-specific readthrough above background levels”, the “C7 products induced, western blot” value ([1]; RDEB_L1 and HEK293^R578X cells, 50 μM compound 7, 50 μM chuangxinmycin, 100 μM 3-methyl-chuangxinmycin) was “partially upregulated full-length C7” and the EC50 [2] was 23 ± 11 µM. For the same compound, the “Increase … % vs baseline” value ([2]; at 50 µM) was 293 ± 58 at 50 % vs baseline.

In the case of `CNC(C)C1CCC(N)C(OC2C(N)CC(N)C(OC3OCC(C)(O)C(NC)C3O)C2O)O1` (centres unmarked) [Gentamicin, reference compound], the “non-specific readthrough at MDH-1 native stop codon, western blot” value ([3]; twofold above its EC50 in RDEB_L1) is reported as “inducing detectable non-specific readthrough”, the “concentrations showing some upregulation of truncated and full-length forms of C7 in western blot” value ([1]; western blot) is reported as > 1 mM and the EC50 [2] is reported as 420 ± 390 µM. For the same compound, the “Increase … % vs baseline” value ([2]; at 1600 µM) was 41 ± 3.3 at 1600 % vs baseline.
